Test results from PubChem BioAssay AID588807 (The Scripps Research Institute Molecular Screening Center, 2011).
The source made the active and inactive calls. The rule behind the calls is not given here.

What was measured:
Experiment in all cases: competitive ABPP of Abhd10 versus anti-targets – biochemical, fluorescence, gel-based, mouse proteome, selectivity assay for PME-1 inhibitor project, late-stage follow-up (AID 588807)
Magl = conditions: anti-target, stronger effect = higher value
[1] = target: Prolyl endopeptidase (Mus musculus) (UniProt Q9QUR6); conditions: PREP, anti-target, stronger effect = higher value
Kiaa1363 = conditions: anti-target, stronger effect = higher value
[2] = target: Palmitoyl-protein thioesterase ABHD10, mitochondrial (Mus musculus) (UniProt Q6PE15); conditions: stronger effect = higher value
APEH = conditions: anti-target, stronger effect = higher value
[3] = target: Monoacylglycerol lipase ABHD6 (Mus musculus) (UniProt Q8R2Y0); conditions: anti-target, stronger effect = higher value
Sequence of Monoacylglycerol lipase ABHD6 (Mus musculus) (Q8R2Y0 whole entry, looked up): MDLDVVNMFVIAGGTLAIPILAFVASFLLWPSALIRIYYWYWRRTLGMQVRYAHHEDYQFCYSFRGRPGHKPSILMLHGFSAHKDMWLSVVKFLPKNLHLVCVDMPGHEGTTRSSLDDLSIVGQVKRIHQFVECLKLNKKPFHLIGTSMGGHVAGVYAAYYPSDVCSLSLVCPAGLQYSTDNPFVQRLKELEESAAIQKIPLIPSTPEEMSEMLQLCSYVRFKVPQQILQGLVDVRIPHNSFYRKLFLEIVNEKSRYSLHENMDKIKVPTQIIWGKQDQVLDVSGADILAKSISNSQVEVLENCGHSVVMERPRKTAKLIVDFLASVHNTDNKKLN

Sequence of Palmitoyl-protein thioesterase ABHD10, mitochondrial (Mus musculus) (Q6PE15 whole entry, looked up): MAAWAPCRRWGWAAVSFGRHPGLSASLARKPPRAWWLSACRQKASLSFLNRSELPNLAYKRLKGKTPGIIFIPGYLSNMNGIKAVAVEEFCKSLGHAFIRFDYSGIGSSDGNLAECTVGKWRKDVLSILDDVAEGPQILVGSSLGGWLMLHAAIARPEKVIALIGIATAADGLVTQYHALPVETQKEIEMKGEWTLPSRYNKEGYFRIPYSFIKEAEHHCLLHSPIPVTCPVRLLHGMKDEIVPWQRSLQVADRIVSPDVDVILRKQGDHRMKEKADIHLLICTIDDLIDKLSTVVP
Sequence of Prolyl endopeptidase (Mus musculus) (Q9QUR6 whole entry, looked up): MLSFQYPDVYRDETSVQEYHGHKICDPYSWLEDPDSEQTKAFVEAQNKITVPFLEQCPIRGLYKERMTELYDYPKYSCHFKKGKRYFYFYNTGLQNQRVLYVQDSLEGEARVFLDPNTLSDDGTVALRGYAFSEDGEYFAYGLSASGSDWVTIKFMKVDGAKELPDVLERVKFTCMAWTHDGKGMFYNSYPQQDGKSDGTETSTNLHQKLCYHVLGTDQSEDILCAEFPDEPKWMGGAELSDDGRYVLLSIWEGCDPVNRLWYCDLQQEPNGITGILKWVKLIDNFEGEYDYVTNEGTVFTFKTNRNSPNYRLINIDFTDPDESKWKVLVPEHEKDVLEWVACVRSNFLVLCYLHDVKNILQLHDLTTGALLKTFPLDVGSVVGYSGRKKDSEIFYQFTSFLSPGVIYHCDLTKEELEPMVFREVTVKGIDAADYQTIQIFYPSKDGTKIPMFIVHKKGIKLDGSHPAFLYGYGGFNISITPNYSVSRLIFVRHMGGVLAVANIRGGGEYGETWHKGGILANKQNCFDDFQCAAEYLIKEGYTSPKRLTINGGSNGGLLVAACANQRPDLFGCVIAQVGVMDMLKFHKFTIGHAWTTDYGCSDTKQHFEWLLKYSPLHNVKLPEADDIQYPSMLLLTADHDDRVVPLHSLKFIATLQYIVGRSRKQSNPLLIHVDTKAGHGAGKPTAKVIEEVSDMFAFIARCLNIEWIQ

| inhibition (Magl; at 10 µM) | inhibition ([1]; at 10 µM) | inhibition (Kiaa1363; at 10 µM) | inhibition ([2]; at 10 µM) | inhibition ([2]; inhibition, at 0.1 µM) | inhibition ([2]; inhibition, at 1 µM) | inhibition (APEH; at 10 µM) | inhibition ([3]; at 10 µM) | inhibition ([1]; inhibition, at 1 µM) | inhibition (Kiaa1363; inhibition, at 1 µM) | inhibition (APEH; inhibition, at 1 µM) | inhibition ([3]; inhibition, at 0.1 µM) | inhibition ([3]; inhibition, at 1 µM) | inhibition ([1]; inhibition, at 0.1 µM) | inhibition (Magl; inhibition, at 1 µM) | inhibition (Magl; inhibition, at 0.1 µM) | SMILES |
| --- | --- | --- | --- | --- | --- | --- | --- | --- | --- | --- | --- | --- | --- | --- | --- | --- |
| 10% (inactive) | 25% (inactive) | 0% (inactive) | 90% (inactive) | 20% | 70% | 55% (inactive) | 0% (inactive) |  |  |  |  |  |  |  |  | CC[C@@]1(c2ccc(Cl)c(Cl)c2)C(=O)N(C(=O)OC)N1C(=O)OC |
| 0% (inactive) | 0% (inactive) | 0% (inactive) | 95% (inactive) | 40% | 90% | 0% (inactive) | 25% (inactive) |  |  |  |  |  |  |  |  | CC[C@@]1(c2cccc(OC)c2)C(=O)N(C(=O)OC(C)C)N1C(=O)OC(C)C |
| 45% (inactive) | 95% (inactive) | 75% (inactive) | 100% (inactive) | 40% | 100% | 65% (inactive) | 70% (inactive) | 50% | 25% | 30% | 15% | 20% |  |  |  | CC[C@@]1(c2cccc(Cl)c2)C(=O)N(C(=O)OC(C)C)N1C(=O)OC(C)C |
| 0% (inactive) | 0% (inactive) | 0% (inactive) | 10% (inactive) |  |  | 0% (inactive) | 0% (inactive) |  |  |  |  |  |  |  |  | CC[C@@]1(c2ccccc2)C(=O)N(C(=O)OC)N1C(=O)OC |
| 0% (inactive) | 10% (inactive) | 0% (inactive) | 20% (inactive) |  |  | 0% (inactive) | 0% (inactive) |  |  |  |  |  |  |  |  | CC[C@@]1(c2cccc(C)c2)C(=O)N(C(=O)OCC(Cl)(Cl)Cl)N1C(=O)OCC(Cl)(Cl)Cl |
| 0% (inactive) | 0% (inactive) | 0% (inactive) | 15% (inactive) |  |  | 0% (inactive) | 0% (inactive) |  |  |  |  |  |  |  |  | Cc1cccc([C@]2(C)C(=O)N(C(=O)OCc3ccccc3)N2C(=O)OCc2ccccc2)c1 |
| 0% (inactive) | 55% (inactive) | 0% (inactive) | 100% (inactive) | 30% | 100% | 75% (inactive) | 70% (inactive) | 20% |  |  |  | 20% |  |  |  | CC[C@@]1(c2cccc(C)c2)C(=O)N(C(=O)OC(C)C)N1C(=O)OC(C)C |
| 10% (inactive) | 40% (inactive) | 0% (inactive) | 100% | 55% | 95% | 25% (inactive) | 0% (inactive) |  |  |  |  |  |  |  |  | Cc1cccc([C@]2(C)C(=O)N(C(=O)OC(C)C)N2C(=O)OC(C)C)c1 |
| 25% (inactive) | 70% (inactive) | 0% (inactive) | 95% | 60% | 95% | 0% (inactive) | 25% (inactive) | 15% |  |  |  |  |  |  |  | CC[C@@]1(c2cccc(F)c2)C(=O)N(C(=O)OC)N1C(=O)OC |
| 0% (inactive) | 0% (inactive) | 0% (inactive) | 0% (inactive) |  |  | 85% (inactive) | 0% (inactive) |  |  |  |  |  |  |  |  | COC(=O)N1C(=O)[C@](c2ccccc2)(C2CCCC2)N1C(=O)OC |
| 0% (inactive) | 90% (inactive) | 75% (inactive) | 95% (inactive) | 20% | 65% | 0% (inactive) | 35% (inactive) |  |  |  |  | 10% |  |  |  | CC[C@@]1(c2cccc(C)c2)C(=O)N(C(=O)OCc2ccccc2)N1C(=O)OCc1ccccc1 |
| 50% (inactive) | 65% (inactive) | 20% (inactive) | 90% (inactive) | 35% | 85% | 20% (inactive) | 75% (inactive) | 10% |  |  |  |  |  |  |  | C=CCOC(=O)N1C(=O)[C@@](CC)(c2cccc(C)c2)N1C(=O)OCC=C |
| 45% (inactive) | 100% (inactive) | 25% (inactive) | 100% | 75% | 100% | 70% (inactive) | 65% (inactive) | 45% |  |  |  |  | 20% |  |  | CCOC(=O)N1C(=O)[C@@](CC)(c2cccc(C)c2)N1C(=O)OCC |
| 60% (inactive) | 65% (inactive) | 25% (inactive) | 100% | 60% | 95% | 0% (inactive) | 55% (inactive) |  |  |  |  |  |  |  |  | CCOC(=O)N1C(=O)[C@@](CC)(c2ccc(C)cc2)N1C(=O)OCC |
| 25% (inactive) | 60% (inactive) | 0% (inactive) | 100% (inactive) | 10% | 95% | 10% (inactive) | 70% (inactive) | 20% |  |  |  |  |  | 10% |  | CCCOC(=O)N1C(=O)C(CC)(c2cccc(C)c2)N1C(=O)OCCC (centres undefined) |
| 45% (inactive) | 85% (inactive) | 35% (inactive) | 100% (inactive) | 35% | 100% | 50% (inactive) | 50% (inactive) | 20% |  |  |  |  |  |  |  | CC[C@@]1(c2cccc(C)c2)C(=O)N(C(=O)OC)N1C(=O)OC |
| 10% (inactive) | 30% (inactive) | 40% (inactive) | 100% (inactive) |  | 95% | 70% (inactive) | 10% (inactive) |  |  |  |  |  |  |  |  | CC[C@@]1(c2ccc(OC)cc2)C(=O)N(C(=O)OC(C)C)N1C(=O)OC(C)C |
| 0% (inactive) | 0% (inactive) | 0% (inactive) | 10% (inactive) |  |  | 0% (inactive) | 0% (inactive) |  |  |  |  |  |  |  |  | CCC[C@@]1(c2cccc(C)c2)C(=O)N(C(=O)OC)N1C(=O)OC |
| 50% (inactive) | 40% (inactive) | 10% (inactive) | 90% | 80% | 90% | 0% (inactive) | 75% (inactive) | 15% |  |  |  |  |  |  |  | C=CCOC(=O)N1C(=O)[C@@](CC)(c2ccc(C)cc2)N1C(=O)OCC=C |
| 10% (inactive) | 70% (inactive) | 25% (inactive) | 90% (inactive) | 10% | 75% | 75% (inactive) | 50% (inactive) |  |  |  |  |  |  |  |  | C=CCOC(=O)N1N(C(=O)OC)C(=O)[C@@]1(CC)c1cccc(C)c1 |
| 0% (inactive) | 90% (inactive) | 0% (inactive) | 100% | 75% | 100% | 55% (inactive) | 65% (inactive) | 20% |  |  |  | 15% |  |  |  | CCOC(=O)N1C(=O)[C@@](CC)(c2ccccc2)N1C(=O)OCC |
| 10% (inactive) | 50% (inactive) | 15% (inactive) | 100% | 55% | 95% | 20% (inactive) | 25% (inactive) | 20% |  |  |  |  |  |  |  | CC[C@@]1(c2ccc(C)cc2)C(=O)N(C(=O)OC)N1C(=O)OC |
| 10% (inactive) | 70% (inactive) | 25% (inactive) | 90% (inactive) | 20% | 15% | 55% (inactive) | 40% (inactive) |  |  |  |  |  | 20% |  | 10% | CC[C@@]1(c2ccccc2C)C(=O)N(C(=O)OC)N1C(=O)OC |
| 20% (inactive) | 55% (inactive) | 55% (inactive) | 90% (inactive) | 10% | 60% | 0% (inactive) | 60% (inactive) | 25% |  |  |  |  | 10% |  |  | C=CCOC(=O)N1N(C(=O)OC)C(=O)[C@@]1(CC)c1ccccc1 |
| 25% (inactive) | 80% (inactive) | 0% (inactive) | 90% (inactive) | 25% | 90% | 50% (inactive) | 50% (inactive) |  |  |  |  |  |  |  |  | CC[C@@]1(c2ccc(Cl)c(Cl)c2)C(=O)N(C(=O)OC(C)C)N1C(=O)OC(C)C |
| 0% (inactive) | 0% (inactive) | 0% (inactive) | 70% (inactive) |  | 10% | 0% (inactive) | 10% (inactive) |  |  |  |  |  |  |  |  | CC[C@@]1(c2cccc(C)c2)C(=O)N(C(=O)OC(C)(C)C)N1C(=O)OC(C)(C)C |
